According to patent publication US8404435B2, “Enigma-Mdm2 interaction and uses thereof” (Korea Research Institute of Bioscience and Biotechnology, priority 2009, dated 2013):
One block for each compound: values may come before it.

What was measured:
[1] = test system: MRC5 (human normal fibroblast); experiment: Serum response of SRF-Enigma-Mdm2 pathway in MRC5; type: cell-based
Protocol: (§1) The present inventors identified serum response by using MRC5 (human normal fibroblast), MEF (mouse embryonic fibroblast) to identify presence of SRF-Enigma-Mdm2 pathway in normal cells. In case of MRC5, activity of SRF-Enigma-Mdm2 pathway by serum was inhibited when siSRF (10, 15 μg) is induced or PD98059 is present; in case of MEF, activity of SRF-Enigma-Mdm2 pathway was inhibited by PD98059 (FIGS. 12A and 12C). Thus, an amount of protein by transcriptional activity increased for SRF, Enigma, transcript level for Mdm2 (p1-Mdm2) and p53 was unvaried. However, transcript level for p2-Mdm2 changed dependently on an amount of p53 expression (FIGS. 12B and 12D).

[2] = test system: MEF (mouse embryonic fibroblast); experiment: Serum response of SRF-Enigma-Mdm2 pathway in MEF; type: cell-based
Protocol: as §1

[3] = test system: Mdm2+/+p53-/- MEF cell lines; experiment: HGF effect on SRF-Enigma-Mdm2 pathway with or without PD98059; type: cell-based, mouse; conditions: Ad-p53 or Ad-LacZ induced
From the text: Since an MAP kinase is known to be associated with SRF expression by cell growth factor (J Physiol Pharmacol 53, 147-157, 53, 2002), the present inventors hypothesized that an MAP kinase is associated with regulation of SRF-Enigma-Mdm2 pathway, and tested by using PD98059, MAP kinase-specific inhibitor. The present inventors treated the cells with HGF and with or without PD98059 after inducing Ad-p53 or Ad-LacZ into Mdm2^+/+p53^−/− MEF cell lines. As the result, PD98059 abolished the HGF effect on SRF-Enigma-Mdm2 pathway (FIG. 10E).

Mdm2 [4] = molecular target: T1, Mdm2 (Homo sapiens, UniProt Q00987); experiment: In vitro binding assay (GST pull-down / IP) of purified proteins; conditions: proteins purified from E. coli
T1 construct: His; made in house; host or cells: E. coli
Protocol: The present inventors, to test interaction between Enigma and Mdm2, generated mutants (F-PDZ, F-PDZ-LIM1, F-LIM) of Enigma in pCMVtaq2B vector by a common PCR cloning method, and produced mutants (GST-1-100, GST-101-491, GST-201-491, GST-301-491) of Mdm2 in pEBG vector by a PCR cloning method. His-Mdm2, Enigma, GST-p53, EniΔLIM3 proteins were respectively separated and purified from E. coli to identify the interaction in vitro.
In vitro binding assay was performed to identify directly in-vitro interaction between respective proteins (1 μg His-Mdm2, 0.5 μg Enigma, 1 μg GST-p53) which are separated and purified from E. coli. Binding between respective proteins were induced after mixing, the bindings between proteins were identified by a GST pull-down and an IP method.
A binding site was determined by using respective mutants produced from Enigma and Mdm2. First, each mutant vector (5 μg) was introduced into a 293 cell line where Hag-Enigma is constitutively expressed, and afterwards binding was identified by GST pull-down and by a Western blotting with a Hag antibody (FIG. 5D). Also, each Enigma mutant (5 μg) and GST-Mdm2 expression vector (5 μg) were introduced into a 293T cell line (ATCC) by a calcium phosphate method. At 24 hours, the cells were collected, and binding was identified by IP with a Flag antibody and by a Western blotting with a GST antibody (FIG. 5E). […]

Mdm2 [5] = molecular target: T1, Mdm2; experiment: In vitro ubiquitination assay; type: biochemical
Protocol: In vitro ubiquitination assay was performed to test self-ubiquitination of Mdm2 by Enigma's binding. After ubiquitin reaction mixture (including E1, E2, His-Ub, ATP) was added and reacted to His-Mdm2 protein (0.5 μg), His-Mdm2 (C464A: 0.5 μg), Enigma protein (0.5, 1 μg), F-EniΔLIM3 (1 μg), a change in self-ubiquitination and binding proteins for Mdm2 were identified by an IP/IB method. As the result, self-ubiquitination of Mdm2 was inhibited by F-Enigma, which binds to Mdm2, and Enigma had no effect on an Mdm2 (C464A) variant where 464-cysteine on the Mdm2 RING finger region was substituted by alanine (FIG. 7C). Also, Enigma stimulated Mdm2-mediated p53 ubiquitination in vitro (FIG. 7D). Thus, Enigma was identified as a determining factor that shifts specificity of Mdm2 E3 ligase from itself toward p53.
PCAF (p300-CBP-associated factor) induces the ubiquitination of Mdm2 (Nat Cell Biol 9, 331-338, 2007). When proteins purified from bacteria and described in FIG. 5-1a were used to perform an in-vitro ubiquitin experiment, Enigma had no effect on Mdm2 ubiquitination by PCAF (FIG. 8A). This event was also tested in an Mdm2^−/−p53^−/− MEF cell line (FIG. 8B).

Enigma promoter = experiment: SRE-Luc / ΔSRE-Luc Enigma promoter reporter assay; type: cell-based; conditions: HLK3; 20, 40 ng/ml, 6 hours
Protocol: After Enigma-Luc was induced into an HLK3 cell line (0.5 μg), was cultured in DMEM with 0.1% […] for 24 hours, and was cultured with 5% and 20% FBS added for 6 hours again, luciferase activity of collected cells were measured. As the result, activity of Enigma-Luc increased dependently on the concentration of serum (FIG. 9B).
After SRE-Luc (0.5 μg), ΔSRE-Luc (0.5 μg), which were produced to test SRF dependence of Enigma expression, were induced into an HLK3 cell line, the cells were cultured in DMEM with 0.1% FBS for 24 hours, and were cultured with 5% and 20% FBS, FGF (20, 40 ng/ml), or HGF (20, 40 ng/ml) added for 6 hours again, luciferase activity of collected cells were measured.

HLK3 cell line = experiment: HGF effect on SRF-Enigma-Mdm2-p53 pathway, Western blotting; type: cell-based; conditions: HGF 40, 60 ng/ml, 4 hours before cell collection
Protocol: The present inventors investigated whether SRF-Enigma-Mdm2 pathway is also regulated by HGF. The present inventors, to show specific relevance of SRF, Enigma, identified changes in each protein by a Western blotting after inducing 10 μg each of siEnigma, siSRF into an HLK3 cell line, culturing them in a condition of removing serum, and processing each with HGF (40, 60 ng/ml) 4 hours before cell collection. […] Furthermore, the present inventors observed a change in Enigma and Mdm2 after directly inducing F-SRF into an HLK3 cell line concentration-wise (5, 10 μg).

mouse liver = experiment: SRF-Enigma-Mdm2-p53 pathway in mouse liver, Western blotting; type: in vivo, mice (Balb/c); conditions: HGF 100 μg/kg into tail vein, livers removed time-wise
Protocol: The present inventors identified a change in SRF-Enigma-Mdm2-p53 by a Western blotting after injecting each of Ad-p53 or Ad-LacZ virus (5×10^8 pfu) into tail vein of mice (Balb/c, Female, Taconic) and after 24 hours injecting HGF (100 μg/kg) into tail vein of mice again, removing livers time-wise. As the result, HGF induced protein expression by transcriptionally activating SRF, Enigma was induced by SRF at transcription level, and an amount of protein increased.
The present inventors, to observe a change in Mdm2-p53 according to a direct change in an amount of Enigma expression, identified an amount of each protein by a Western blotting after injecting or not injecting Ad-p53 into tail vein of mice (Balb/c, Female, Taconic) and after 24 hours injecting Ad-F-Enigma, Ad-LacZ, PBS into tail vein of mice again, removing livers after 48 hours. Furthermore, after injecting Ad-siEnigma, Ad-siControl and PBS into tail vein and injecting HGF into tail vein 8 hours before liver removal.

T1 sequence (Q00987 whole entry): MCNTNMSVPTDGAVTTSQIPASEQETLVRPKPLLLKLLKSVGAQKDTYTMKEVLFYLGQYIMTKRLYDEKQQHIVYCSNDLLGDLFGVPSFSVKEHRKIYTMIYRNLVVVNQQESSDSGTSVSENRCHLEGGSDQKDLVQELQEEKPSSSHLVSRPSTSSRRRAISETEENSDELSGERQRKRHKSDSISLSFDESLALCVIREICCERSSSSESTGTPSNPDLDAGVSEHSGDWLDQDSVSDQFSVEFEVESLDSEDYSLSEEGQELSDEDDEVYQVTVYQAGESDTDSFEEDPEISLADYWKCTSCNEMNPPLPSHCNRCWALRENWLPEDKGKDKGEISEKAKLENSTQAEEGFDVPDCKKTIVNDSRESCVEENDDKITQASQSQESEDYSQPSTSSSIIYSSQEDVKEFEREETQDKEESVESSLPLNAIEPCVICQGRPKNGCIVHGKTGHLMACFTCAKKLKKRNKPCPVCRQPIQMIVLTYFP

Compound: COc1cccc(-c2cc(=O)c3ccccc3o2)c1N [PD98059]
activity of SRF-Enigma-Mdm2 pathway by serum [1]: inhibited
activity of SRF-Enigma-Mdm2 pathway [2]: inhibited
HGF effect on SRF-Enigma-Mdm2 pathway [3]: abolished

binding to Mdm2 in vitro (Mdm2 [4]): bound to Mdm2 directly
Mdm2-mediated p53 ubiquitination in vitro (Mdm2 [5]): stimulated
Mdm2 ubiquitination by PCAF in vitro (Mdm2 [5]): no effect
self-ubiquitination of Mdm2 in vitro (Mdm2 [5]; Enigma protein 0.5, 1 μg, His-Mdm2 0.5 μg): inhibited
Compound: Enigma: Enigma protein separated and purified from E. coli

Compound: HGF: growth factor
reporter activity of SRE-Luc but not ΔSRE-Luc (Enigma promoter): increased dependently on the concentration of growth factor
changes in SRF, Enigma, Mdm2, p53 protein (HLK3 cell line): an increase in SRF-Enigma-Mdm2 and a SRF- or Enigma-dependent decrease in p53
amount of protein of Mdm2 and p53 in liver (mouse liver): the amount of protein in Mdm2 increased and simultaneously that of p53 decreased
